Patent US5663145A, “Products for administering an initial high dose of Cetrorelix and producing a combination package for use when treating diseases” (ASTA Medica Aktiengesellschaft, priority 1993, dated 1997)
Non-standard residues stand in square brackets, D forms with d. Residues, ends and D or L forms follow the SMILES beside them. dPhe(4-Cl) = N[C@H](Cc1ccc(Cl)cc1)C(=O)O; d2Nal = N[C@H](Cc1ccc2ccccc2c1)C(=O)O; dCit = NC(=O)NCCC[C@@H](N)C(=O)O; d3Pal = N[C@H](Cc1cccnc1)C(=O)O

What was measured:
hormone concentration = experiment: clinical trials, daily dose of 10 mg, suppression of hormone concentration; format: in vivo, human; settings: daily dose of 10 mg
Excerpt: This high daily dose cannot be applied in slow-release forms which are intended to act over a long period of time, for example several months. The depot injected under the skin would be too voluminous and would no longer be acceptable. Therefore there is the object of providing a product for reliable and acceptable application.

[1] = test system: DMBA-induced mammary cancers; experiment: DMBA-induced mammary cancers in rats; format: in vivo; settings: initial high dose and a further dose which is not active when administered on its own
LH, FSH and testosterone = experiment: trial in humans over three weeks, initial dose plus maintenance doses, suppression of LH, FSH and testosterone; format: in vivo
Method: This surprising observation in animals was also confirmed in humans. […] The trial was performed over three weeks.

SMILES: CC(=O)N[C@H](Cc1ccc2ccccc2c1)C(=O)N[C@H](Cc1ccc(Cl)cc1)C(=O)N[C@H](Cc1cccnc1)C(=O)N[C@@H](CO)C(=O)N[C@@H](Cc1ccc(O)cc1)C(=O)N[C@H](CCCNC(N)=O)C(=O)N[C@@H](CC(C)C)C(=O)N[C@@H](CCCNC(=N)N)C(=O)N1CCC[C@H]1C(=O)N[C@H](C)C(N)=O [Cetrorelix] (Ac-[d2Nal][dPhe(4-Cl)][d3Pal]SY[dCit]LRP[dA]-NH2)
- suppression of the hormone concentration (hormone concentration): complete suppression of the hormone concentration to castration level
- treatment of DMBA-induced mammary cancers [1]: successful treatment
- suppression of LH, FSH and testosterone under maintenance doses after initial dose (LH, FSH and testosterone; after 10 mg initial dose, maintenance 1 mg every 12 hours, 2 mg every 24 hours or 1 mg every 24 hours, three weeks): suppression of LH, FSH and testosterone was maintained
- suppression of LH, FSH and testosterone after initial dose (LH, FSH and testosterone; injection of an initial dose of 10 mg): led to suppression of LH, FSH and testosterone
- suppression of LH, FSH and testosterone with maintenance doses on their own (LH, FSH and testosterone; maintenance doses (1 mg every 12 hours, 2 mg every 24 hours, 1 mg every 24 hours) applied on their own, no initial dose): suppression of LH, FSH and testosterone is not achieved
